Source: ChEMBL document CHEMBL3507680, “University of Dundee, Gates Library screen for HepG2 cell viability”

test: Human HepG2 cell viability assay in 384 well format; format: toxicity, cell-based; design: dose 125 nL, time 70.5 hour; concentration not given beside the values; conditions: HepG2 cells, read-out: Inhibition

Structure (SMILES)	cytotoxicity at 70.5 h [%]
Cn1cnnc1C1CCCN(C(=O)c2cc(C3CC3)on2)C1 (stereo not drawn)	-10.9
FC(F)(F)c1cccc(C2(CNCc3ccncc3)CCOCC2)c1	6.55
CNS(=O)(=O)c1cccc(C(C)NCc2nccn2C(C)C)c1 (stereo not drawn)	10.8
CC(C)OCCCN1CCCC(c2nc3ccccc3n2C(C)C)C1 (stereo not drawn)	13.2
Cc1cc(C(N)=O)ccc1NC(=O)c1nc(N2CCCC2)ncc1Cl	-4.63
NCC1(c2cccc(C(F)(F)F)c2)CCOCC1	-3.44
NS(=O)(=O)CCNC(=O)c1nnn(-c2ccc(F)cc2)c1C1CC1	-2.85
CN1CCCC1CNC(=O)c1nnn(-c2ccc(F)cc2)c1C1CC1 (stereo not drawn)	22.3
NS(=O)(=O)CCNC(=O)c1nnn(-c2ccccc2)c1C1CC1	-2.47
COc1ccc(C2CCCN2C(=O)c2cc3c([nH]c2=O)CCC3)cc1 (stereo not drawn)	-2.02
COc1cccc(C2CCCN2C(=O)c2cc3c([nH]c2=O)CCC3)c1 (stereo not drawn)	-2.15
CNC(=O)c1cnc(/C=C/c2cc(OC)c(OC)c(OC)c2)s1	3.41
CNC(=O)c1cnc(/C=C/c2cc(OC)cc(OC)c2)s1	17.6
COc1ccc(NC(C)=O)c(N2CCN(C(C)=O)CC2)n1	-0.156
CCS(=O)(=O)N(C)C1CCN(C(=O)c2cccc(Cl)c2)CC1	-4.92
Cc1csc(NC(=O)CN(C)CC2CCCN2c2cccnn2)n1 (stereo not drawn)	3.61
CCc1nc(CCNC(=O)NC2CC2)sc1C	5.49
COC(=O)C1CCN(c2cncc(-n3nc(C)cc3C)n2)CC1	2.18
Cc1cc(CN2CCc3nn(C(C)C)c(=O)cc3C2)no1	5.97
COCc1nc2cc(NCc3ccncc3)ccc2o1	16.6
CC(CNC(=O)N1CCSCC1)Cc1cccs1 (stereo not drawn)	4.95
COCc1nc2cc(NCc3ccc(C)o3)ccc2o1	0.17
CC(C)CCN1CCN(Cc2nc(C3CC3)no2)CC1	20.6
CCN1CCC(CNCc2cc(OC)ccc2OC)C1 (stereo not drawn)	5.64

Structure (SMILES)	cytotoxicity at 70.5 h [%]
COCCN1CCN(C(C)C(=O)Nc2ccnn2C(C)C)CC1 (stereo not drawn)	1.69
CCc1nc(CCNC(=O)C2CCOC2)sc1C (stereo not drawn)	-2.78
CC(CNC(=O)N1CCN(c2cnccn2)CC1)Cc1cccs1 (stereo not drawn)	-4.18
Cc1cc(F)ccc1CN1CCCC2(C1)OCCO2	-3.36
COc1ccc(CNCC2CC2)cc1F	-7.42
COc1cccc(CN(C)C(=O)CN2CCN(CCO)CC2)c1	-7.48
COc1cccc(CN(C)C(=O)CN2CCN(c3nccn3C)CC2)c1	-6.12
CC1CCN(C(CNC(=O)CCn2cccn2)c2cccs2)CC1 (stereo not drawn)	-1.29
Cc1ccc(CNCc2nnc3n2CCCC3C(F)(F)F)o1 (stereo not drawn)	6.51
O=c1oc(-c2cccs2)nn1CC(O)c1ccc(F)cc1 (stereo not drawn)	-11.2
NC(=O)C1CCCN1Cc1cccc(NC(=O)c2ccsc2)c1 (stereo not drawn)	-11.3
CCOc1ncccc1CNC(=O)N1CCCC1c1cc(C)no1 (stereo not drawn)	-12.6
CCSCCC(=O)Nc1ncn(Cc2cccnc2)n1	-9.89
CCC(C)NC(=O)c1ccccc1-n1cnnn1 (stereo not drawn)	-11.4
COc1ccc(-n2cnnc2SCCC#N)cn1	-4.7
CN(C)CCCNC(=O)c1cc(Br)c2c(c1)OCCO2	-7.25
CCc1nc(CNC(=O)Nc2ccc(C(=O)NC)cc2C)cs1	-22.3
O=C(NC1(c2nnn(CCO)n2)CCCC1)c1ccccc1	-1.16
CN(CCNC(=O)N1CCN(Cc2ccon2)CC1)C1CCCC1	-1.48
CC(NC(=O)NCCCn1cccn1)c1cccnc1 (stereo not drawn)	18.1
COC(=O)CCN1CCCC1c1cccc2c1OCCO2 (stereo not drawn)	-6.05
Cc1cc(CN(C)C2CCCN(c3cccnn3)C2)on1 (stereo not drawn)	28.9
CC(C)N(C)CC(=O)NC1CCc2nccn2C1 (stereo not drawn)	17.3
COCCc1noc(CN(C)C2CCCN(c3ccc(C)nn3)C2)n1 (stereo not drawn)	24.4
